In publication PMC3486838 (PLoS ONE, 2012):
Like-named read-outs stand apart in the source and are kept apart here.

Experiments:
human CYP11B2 = target: T1, human CYP11B2 (Homo sapiens, UniProt P19099); assay: Inhibition of CYP11B2 in V79 MZh cells expressing the enzyme; assay type: cell-based; details: for SF: selectivity factor = IC50 CYP11B1/IC50 CYP11B2: CYP11B2 over CYP11B1; for IC50: substrate deoxycorticosterone, 100 nM
T1 construct: expressed in transfected cells; host or cells: V79MZh cells
T1 sequence (P19099 25-503): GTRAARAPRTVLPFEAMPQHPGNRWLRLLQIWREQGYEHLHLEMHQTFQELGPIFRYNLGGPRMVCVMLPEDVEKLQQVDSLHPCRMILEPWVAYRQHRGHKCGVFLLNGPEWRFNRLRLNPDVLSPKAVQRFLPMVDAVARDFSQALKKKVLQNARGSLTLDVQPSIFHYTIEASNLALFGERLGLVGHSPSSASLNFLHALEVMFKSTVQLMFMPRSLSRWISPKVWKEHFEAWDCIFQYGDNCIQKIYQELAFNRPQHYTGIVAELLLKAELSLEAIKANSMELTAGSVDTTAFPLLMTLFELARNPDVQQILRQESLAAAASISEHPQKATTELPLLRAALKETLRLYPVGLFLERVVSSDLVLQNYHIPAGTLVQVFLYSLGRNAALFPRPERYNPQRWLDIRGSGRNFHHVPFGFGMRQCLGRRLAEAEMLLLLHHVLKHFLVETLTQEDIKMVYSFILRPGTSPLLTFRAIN
Description: (§1) V79MZh cells expressing human CYP11B1 [45] or CYP11B2 [44] were incubated with [^14C]-11-deoxycorticosterone as substrate. The assay was performed as previously described.

human CYP11B1 = target: T2, human CYP11B1 (Homo sapiens, UniProt P15538); assay: Inhibition of CYP11B1 in V79 MZh cells expressing the enzyme; assay type: cell-based
T2 construct: expressed in transfected cells; host or cells: V79MZh cells
T2 sequence (P15538 25-503): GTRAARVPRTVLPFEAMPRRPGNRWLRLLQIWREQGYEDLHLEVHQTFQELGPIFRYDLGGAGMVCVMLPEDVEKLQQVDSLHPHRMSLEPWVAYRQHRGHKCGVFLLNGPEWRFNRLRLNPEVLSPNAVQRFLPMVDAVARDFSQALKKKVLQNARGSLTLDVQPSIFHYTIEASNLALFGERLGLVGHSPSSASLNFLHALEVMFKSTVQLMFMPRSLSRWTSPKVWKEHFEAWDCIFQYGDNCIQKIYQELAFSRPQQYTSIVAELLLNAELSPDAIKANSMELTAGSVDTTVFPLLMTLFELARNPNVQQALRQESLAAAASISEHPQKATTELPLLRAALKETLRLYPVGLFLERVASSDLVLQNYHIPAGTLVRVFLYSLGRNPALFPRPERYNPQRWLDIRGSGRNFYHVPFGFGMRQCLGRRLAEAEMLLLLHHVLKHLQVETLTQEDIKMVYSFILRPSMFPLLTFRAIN
Description: as §1

[1] = target: T3, human hepatic enzyme CYP1A2 (Homo sapiens, UniProt P05177); assay: Inhibition of human hepatic CYP1A2, recombinant enzyme (Supersomes); assay type: biochemical
T3 sequence (P05177 1-516): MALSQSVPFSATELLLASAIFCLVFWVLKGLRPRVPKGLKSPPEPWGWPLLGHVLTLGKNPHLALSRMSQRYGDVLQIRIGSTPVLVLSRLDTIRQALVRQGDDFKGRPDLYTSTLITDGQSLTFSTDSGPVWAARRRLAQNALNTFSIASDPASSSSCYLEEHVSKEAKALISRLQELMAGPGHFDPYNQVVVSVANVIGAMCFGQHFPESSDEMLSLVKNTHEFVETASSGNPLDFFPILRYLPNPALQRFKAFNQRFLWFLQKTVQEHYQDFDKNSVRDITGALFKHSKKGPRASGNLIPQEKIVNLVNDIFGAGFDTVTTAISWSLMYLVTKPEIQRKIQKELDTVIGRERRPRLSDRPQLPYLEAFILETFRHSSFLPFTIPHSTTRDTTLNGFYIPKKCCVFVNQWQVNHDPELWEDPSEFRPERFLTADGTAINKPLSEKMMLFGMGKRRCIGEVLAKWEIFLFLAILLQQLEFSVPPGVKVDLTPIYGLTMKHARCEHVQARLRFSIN

[2] = Hamster fibroblasts (V79 MZh) expressing human CYP11B2, read-out: 11B2 IC50
[3] = Hamster fibroblasts (V79 MZh) expressing human CYP11B1, substrate deoxycorticosterone, 100 nM, read-out: 11B1 IC50
[4] = recombinantly expressed enzyme from baculovirus infected insect microsomes (Supersomes)

Compound	SF: selectivity factor = IC50 CYP11B1/IC50 CYP11B2 (human CYP11B2)	IC50 (human CYP11B2; [2])	IC50 (human CYP11B1; [3])	CYP1A2 inhibition at 2 µM [1]	IC50 [1, 4]	melting point	IC50 ([1]; recombinant CYP1A2)	IC50 (human CYP11B2; 11B2 IC50, Hamster fibroblasts (V79 MZh) expressing human CYP11B2)	IC50 (human CYP11B1)
CC12CCC(c3cccnc3)=CC1=CCCC2=O (racemic) [Compound 17, (±)-8a-Methyl-6-pyridin-3-yl-3,7,8,8a-tetrahydro-2H-naphthalen-1-one]	2	0.462 ± 0.036 µM	1.02 ± 0.078 µM						
c1cncc(C2CCC3CCCCC3C2)c1 (stereo not drawn) [Compound 1, 3-(Decahydro-naphthalen-2-yl)-pyridine]	4	0.157 ± 0.014 µM	0.611 ± 0.034 µM						
O=C1CC2C=C(c3cccnc3)CC2C1 (stereo not drawn) [Compound 2, 5-Pyridin-3-yl-3,3a,4,6a-tetrahydro-1H-pentalen-2-one]	8	0.034 ± 0.005 µM	0.282 ± 0.017 µM	no inhibition	> 100 µM				
O=C1CC2CC(c3cccnc3)CC2C1 (stereo not drawn) [Compound 3, 5-Pyridin-3-yl-hexahydro-pentalen-2-one]		0.258 ± 0.022 µM	0.306 ± 0.025 µM						
C=C1CC2C=C(c3cccnc3)CC2C1 (stereo not drawn) [Compound 4, 3-(5-Methylidene-1,3a,4,5,6,6a-hexahydro-pentalen-2-yl)-pyridine]	34	0.006 ± 0.002 µM	0.205 ± 0.012 µM		2.17 ± 0.097 µM				
OC1CC2C=C(c3cccnc3)CC2C1 (stereo not drawn) [Compound 5, 5-Pyridin-3-yl-1,2,3,3a,4,6a-hexahydro-pentalen-2-ol]	3	0.225 ± 0.021 µM	0.663 ± 0.027 µM			110 to 112 °C			
OC1CC2CC(c3cccnc3)CC2C1 (stereo not drawn) [Compound 6, 5-Pyridin-3-yl-octahydro-pentalen-2-ol]	0.4	0.347 ± 0.035 µM	0.133 ± 0.029 µM						
O=C1CCC=C(c2cccnc2)CCC1 [Compound 7, 5-Pyridin-3-yl-cyclooct-4-enone]	4	0.205 ± 0.016 µM	0.851 ± 0.058 µM						
O=C1CCCC(c2cccnc2)CCC1 [Compound 8, 5-Pyridin-3-yl-cyclooctanone]	3	0.443 ± 0.036 µM	1.35 ± 0.079 µM						
OC1CCC=C(c2cccnc2)CCC1 (stereo not drawn) [Compound 9, 5-Pyridin-3-yl-cyclooct-4-enol]	2	0.141 ± 0.011 µM	0.348 ± 0.025 µM						
OC1CCCC(c2cccnc2)CCC1 (stereo not drawn) [Compound 10, (endo/exo)-5-Pyridin-3-yl-cyclooctanol]		0.294 ± 0.023 µM	0.246 ± 0.036 µM						
C1=C(c2cccnc2)CCCCCC1 [Compound 11, 3-Cyclooct-1-enyl-pyridine]	2	0.081 ± 0.007 µM	0.195 ± 0.015 µM		> 100 µM				
c1cncc(C2CCCCCCC2)c1 [Compound 12, 3-Cyclooctyl-pyridine]	50	0.021 ± 0.005 µM	1.05 ± 0.067 µM	no inhibition	> 100 µM				
C1=C(c2cccnc2)CCCCCCCC1 [Compound 13, 3-Cyclodec-1-enyl-pyridine]	12	0.021 ± 0.003 µM	0.258 ± 0.016 µM	no inhibition	> 100 µM				
c1cncc(C2CCCCCCCCC2)c1 [Compound 14, 3-Cyclodecyl-pyridine]	40	0.022 ± 0.002 µM	0.872 ± 0.079 µM		> 100 µM				
C1=C(c2cccnc2)CCCCCCCCCC1 [Compound 15, 3-Cyclododec-1-enyl-pyridine]		1.17 ± 0.097 µM	> 10 µM						
c1cncc(C2CCCCCCCCCCC2)c1 [Compound 16, 3-Cyclododecyl-pyridine]	3	0.636 ± 0.032 µM	1.77 ± 0.056 µM						
C1=C(c2cccnc2)C2CCC1C2 (stereo not drawn) [Compound 18, 3-Bicyclo[2.2.1]hept-2-en-2-yl-pyridine]	3	0.889 ± 0.057 µM	2.13 ± 0.113 µM						
c1cncc(C2CC3CCC2C3)c1 (stereo not drawn) [Compound 19, (endo/exo)-3-Bicyclo[2.2.1]hept-2-yl-pyridine]		0.099 ± 0.021 µM	0.137 ± 0.012 µM		44.43 ± 0.388 µM		44 µM		
CN1C2C=C(c3cccnc3)CC1CC2 (stereo not drawn) [Compound 20, 8-Methyl-3-pyridin-3-yl-8-aza-bicyclo[3.2.1]oct-2-ene]		2.44 ± 0.088 µM	> 5 µM						
CN1C2CCC1CC(c1cccnc1)C2 (stereo not drawn) [Compound 21, (endo/exo)-8-Methyl-3-pyridin-3-yl-8-aza-bicyclo[3.2.1]octane]								2.83 ± 0.135 µM	> 10 µM
COc1ccc2cc(-c3cccnc3)ccc2c1 [I, reference compound]					0.041 ± 0.005 µM				
COC1CCc2cc(-c3cccnc3)ccc2C1 (stereo not drawn) [II, reference compound]	347	0.003 ± 0.001 µM	1.15 ± 0.078 µM		0.44 ± 0.011 µM				
COc1ccc2c(c1)CC(C)C(c1cccnc1)=C2 (stereo not drawn) [III, reference compound]	79	0.003 ± 0.001 µM	0.248 ± 0.019 µM		0.741 ± 0.055 µM				
